From patent US11981658B2, “Substituted aminopyridine compounds as EGFR inhibitors” (YUHAN CORPORATION, priority 2021, dated 2024)
Where two headings read alike, the source gives them in different places.

Legend:
EGFR L858R/C797S = EGFR L858R/C797S (Homo sapiens, UniProt P00533, C797S/L858R); assay: Biochemical EGFR kinase inhibition assay (Lance Ultra TR-FRET), double mutant L858R/C797S
In short: (§1)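 Kinase activity is measured by TR-FRET phosphopeptide detection. Compounds span 0.003 μM to 10 μM; the 1 h reaction at room temperature is quenched with EDTA, then labelled antibody (2 nM) is incubated 60 min before reading.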

EGFR Del19/T790M/C797S = EGFR Del19/T790M/C797S (Homo sapiens, UniProt P00533, C797S/DEL746-750/T790M); assay: Biochemical EGFR kinase inhibition assay (Lance Ultra TR-FRET), triple mutant del19/T790M/C797S
In short: as §1

EGFR Del19/C797S = EGFR Del19/C797S (Homo sapiens, UniProt P00533, C797S/DEL746-750); assay: Biochemical EGFR kinase inhibition assay (Lance Ultra TR-FRET), double mutant del19/C797S
Sequence of EGFR Del19/C797S (P00533 with tags, fused parts or gaps DEL746-750/C797S): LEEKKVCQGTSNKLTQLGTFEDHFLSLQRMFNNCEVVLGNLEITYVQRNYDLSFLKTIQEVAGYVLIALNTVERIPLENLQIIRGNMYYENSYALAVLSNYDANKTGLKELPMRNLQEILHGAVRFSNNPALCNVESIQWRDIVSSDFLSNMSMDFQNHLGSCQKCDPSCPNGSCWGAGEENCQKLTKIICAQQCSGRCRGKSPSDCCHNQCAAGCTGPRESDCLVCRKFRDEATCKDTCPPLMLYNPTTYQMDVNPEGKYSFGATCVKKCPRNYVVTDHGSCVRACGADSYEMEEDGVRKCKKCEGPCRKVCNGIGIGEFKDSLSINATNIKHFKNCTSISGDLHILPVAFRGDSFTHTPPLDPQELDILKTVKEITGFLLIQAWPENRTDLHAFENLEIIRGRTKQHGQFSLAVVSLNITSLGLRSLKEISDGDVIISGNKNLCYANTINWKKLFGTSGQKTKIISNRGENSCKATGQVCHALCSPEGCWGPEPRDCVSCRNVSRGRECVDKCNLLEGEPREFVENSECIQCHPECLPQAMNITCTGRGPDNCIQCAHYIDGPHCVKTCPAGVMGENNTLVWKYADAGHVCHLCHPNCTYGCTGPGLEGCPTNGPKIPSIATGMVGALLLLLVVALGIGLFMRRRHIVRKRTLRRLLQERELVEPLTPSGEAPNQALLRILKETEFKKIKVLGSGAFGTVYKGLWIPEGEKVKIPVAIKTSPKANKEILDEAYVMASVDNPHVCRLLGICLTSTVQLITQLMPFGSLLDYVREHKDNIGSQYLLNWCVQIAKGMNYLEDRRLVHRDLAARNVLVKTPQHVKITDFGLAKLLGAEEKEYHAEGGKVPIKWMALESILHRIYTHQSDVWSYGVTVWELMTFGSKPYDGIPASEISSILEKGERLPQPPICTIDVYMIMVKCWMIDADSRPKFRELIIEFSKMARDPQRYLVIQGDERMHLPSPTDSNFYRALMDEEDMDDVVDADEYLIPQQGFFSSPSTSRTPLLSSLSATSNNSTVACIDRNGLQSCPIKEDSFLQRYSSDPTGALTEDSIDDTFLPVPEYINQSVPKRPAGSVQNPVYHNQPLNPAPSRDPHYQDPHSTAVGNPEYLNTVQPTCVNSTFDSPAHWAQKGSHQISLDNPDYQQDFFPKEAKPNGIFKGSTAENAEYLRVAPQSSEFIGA
In short: as §1

EGFR L858R/T790M/C797S = EGFR L858R/T790M/C797S (Homo sapiens, UniProt P00533, C797S/L858R/T790M); assay: Biochemical EGFR kinase inhibition assay (Lance Ultra TR-FRET), triple mutant L858R/T790M/C797S
Sequence of EGFR L858R/T790M/C797S (P00533 25-1210 T790M/C797S/L858R): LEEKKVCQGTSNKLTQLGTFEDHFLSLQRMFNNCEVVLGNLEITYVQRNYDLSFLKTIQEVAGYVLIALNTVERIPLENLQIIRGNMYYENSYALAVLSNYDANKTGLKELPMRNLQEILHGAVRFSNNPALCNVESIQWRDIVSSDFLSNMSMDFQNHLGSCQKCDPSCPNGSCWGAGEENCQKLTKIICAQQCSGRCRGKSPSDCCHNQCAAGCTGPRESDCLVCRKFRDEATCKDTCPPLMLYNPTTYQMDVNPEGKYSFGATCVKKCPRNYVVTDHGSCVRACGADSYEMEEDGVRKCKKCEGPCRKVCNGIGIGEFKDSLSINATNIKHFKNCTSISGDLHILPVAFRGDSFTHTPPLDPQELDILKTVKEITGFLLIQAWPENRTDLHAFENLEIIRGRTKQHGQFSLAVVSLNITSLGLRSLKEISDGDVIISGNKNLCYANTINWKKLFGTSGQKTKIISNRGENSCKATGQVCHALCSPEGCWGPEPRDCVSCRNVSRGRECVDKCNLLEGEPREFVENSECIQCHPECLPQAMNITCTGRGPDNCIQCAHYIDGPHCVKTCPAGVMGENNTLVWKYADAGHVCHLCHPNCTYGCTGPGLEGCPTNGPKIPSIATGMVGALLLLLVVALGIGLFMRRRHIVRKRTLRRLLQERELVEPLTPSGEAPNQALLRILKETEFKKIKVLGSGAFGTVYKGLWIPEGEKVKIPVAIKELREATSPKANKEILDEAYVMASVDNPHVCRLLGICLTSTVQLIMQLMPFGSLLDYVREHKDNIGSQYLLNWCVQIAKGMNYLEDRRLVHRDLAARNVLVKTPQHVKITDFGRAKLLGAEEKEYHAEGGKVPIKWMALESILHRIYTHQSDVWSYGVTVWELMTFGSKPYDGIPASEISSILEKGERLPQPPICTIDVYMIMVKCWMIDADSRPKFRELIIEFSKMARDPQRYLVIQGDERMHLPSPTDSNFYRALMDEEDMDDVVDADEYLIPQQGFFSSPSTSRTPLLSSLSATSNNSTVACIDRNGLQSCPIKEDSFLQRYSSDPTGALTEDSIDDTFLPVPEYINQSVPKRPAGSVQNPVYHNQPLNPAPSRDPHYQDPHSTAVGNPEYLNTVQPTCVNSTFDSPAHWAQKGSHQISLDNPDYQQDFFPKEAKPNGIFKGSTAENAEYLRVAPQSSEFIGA
In short: as §1

EGFR wildtype (WT) = EGFR wildtype (WT) (Homo sapiens, UniProt P00533); assay: Biochemical EGFR kinase inhibition assay (Lance Ultra TR-FRET), wildtype
Sequence of EGFR wildtype (WT) (P00533 25-1210): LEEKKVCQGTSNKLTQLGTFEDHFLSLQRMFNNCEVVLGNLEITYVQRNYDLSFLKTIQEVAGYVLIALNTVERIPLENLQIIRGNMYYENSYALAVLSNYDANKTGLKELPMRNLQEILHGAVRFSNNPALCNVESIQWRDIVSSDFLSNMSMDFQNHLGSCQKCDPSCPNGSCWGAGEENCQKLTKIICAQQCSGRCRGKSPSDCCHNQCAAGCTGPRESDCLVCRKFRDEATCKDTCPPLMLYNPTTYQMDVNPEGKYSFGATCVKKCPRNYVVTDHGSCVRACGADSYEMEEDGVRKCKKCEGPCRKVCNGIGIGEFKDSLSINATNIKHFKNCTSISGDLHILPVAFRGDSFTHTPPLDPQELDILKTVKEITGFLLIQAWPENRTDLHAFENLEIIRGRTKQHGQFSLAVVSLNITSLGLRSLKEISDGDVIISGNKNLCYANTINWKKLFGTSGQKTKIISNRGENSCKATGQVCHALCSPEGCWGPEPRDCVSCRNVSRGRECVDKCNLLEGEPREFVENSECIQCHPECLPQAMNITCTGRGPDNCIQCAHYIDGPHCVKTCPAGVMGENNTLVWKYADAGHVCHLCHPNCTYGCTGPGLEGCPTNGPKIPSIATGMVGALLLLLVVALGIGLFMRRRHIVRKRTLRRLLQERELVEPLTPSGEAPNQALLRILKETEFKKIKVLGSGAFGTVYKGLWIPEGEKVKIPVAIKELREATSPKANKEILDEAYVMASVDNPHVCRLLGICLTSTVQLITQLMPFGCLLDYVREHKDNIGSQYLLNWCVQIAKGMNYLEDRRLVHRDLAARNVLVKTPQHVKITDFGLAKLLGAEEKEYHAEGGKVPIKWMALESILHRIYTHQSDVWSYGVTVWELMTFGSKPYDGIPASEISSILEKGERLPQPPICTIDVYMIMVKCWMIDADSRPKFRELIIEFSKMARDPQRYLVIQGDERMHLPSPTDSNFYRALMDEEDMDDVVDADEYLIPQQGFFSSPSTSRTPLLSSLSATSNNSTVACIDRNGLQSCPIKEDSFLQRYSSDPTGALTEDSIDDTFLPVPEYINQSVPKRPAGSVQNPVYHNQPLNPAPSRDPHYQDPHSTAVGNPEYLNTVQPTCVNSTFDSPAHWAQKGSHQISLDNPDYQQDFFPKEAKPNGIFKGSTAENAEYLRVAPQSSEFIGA
In short: as §1

[1] = IC50 L858R/C797S (nM), 100 μM ATP
[2] = IC50 Del19/T790M/C797S (nM), 100 μM ATP
[3] = IC50 Del19/C797S (nM), 100 μM ATP
[4] = IC50 L858R/T790M/C797S (nM), 100 μM ATP
[5] = ATP at Km, read-out: IC50 L858R/C797S (nM), Km ATP
[6] = ATP at Km, read-out: IC50 Del19/T790M/C797S (nM), Km ATP
[7] = ATP at Km, read-out: IC50 Del19/C797S (nM), Km ATP
[8] = ATP at Km, read-out: IC50 L858R/T790M/C797S (nM), Km ATP
[9] = ATP at Km, read-out: IC50 WT (nM), Km ATP

Sequence of EGFR L858R/C797S (P00533 25-1210 C797S/L858R): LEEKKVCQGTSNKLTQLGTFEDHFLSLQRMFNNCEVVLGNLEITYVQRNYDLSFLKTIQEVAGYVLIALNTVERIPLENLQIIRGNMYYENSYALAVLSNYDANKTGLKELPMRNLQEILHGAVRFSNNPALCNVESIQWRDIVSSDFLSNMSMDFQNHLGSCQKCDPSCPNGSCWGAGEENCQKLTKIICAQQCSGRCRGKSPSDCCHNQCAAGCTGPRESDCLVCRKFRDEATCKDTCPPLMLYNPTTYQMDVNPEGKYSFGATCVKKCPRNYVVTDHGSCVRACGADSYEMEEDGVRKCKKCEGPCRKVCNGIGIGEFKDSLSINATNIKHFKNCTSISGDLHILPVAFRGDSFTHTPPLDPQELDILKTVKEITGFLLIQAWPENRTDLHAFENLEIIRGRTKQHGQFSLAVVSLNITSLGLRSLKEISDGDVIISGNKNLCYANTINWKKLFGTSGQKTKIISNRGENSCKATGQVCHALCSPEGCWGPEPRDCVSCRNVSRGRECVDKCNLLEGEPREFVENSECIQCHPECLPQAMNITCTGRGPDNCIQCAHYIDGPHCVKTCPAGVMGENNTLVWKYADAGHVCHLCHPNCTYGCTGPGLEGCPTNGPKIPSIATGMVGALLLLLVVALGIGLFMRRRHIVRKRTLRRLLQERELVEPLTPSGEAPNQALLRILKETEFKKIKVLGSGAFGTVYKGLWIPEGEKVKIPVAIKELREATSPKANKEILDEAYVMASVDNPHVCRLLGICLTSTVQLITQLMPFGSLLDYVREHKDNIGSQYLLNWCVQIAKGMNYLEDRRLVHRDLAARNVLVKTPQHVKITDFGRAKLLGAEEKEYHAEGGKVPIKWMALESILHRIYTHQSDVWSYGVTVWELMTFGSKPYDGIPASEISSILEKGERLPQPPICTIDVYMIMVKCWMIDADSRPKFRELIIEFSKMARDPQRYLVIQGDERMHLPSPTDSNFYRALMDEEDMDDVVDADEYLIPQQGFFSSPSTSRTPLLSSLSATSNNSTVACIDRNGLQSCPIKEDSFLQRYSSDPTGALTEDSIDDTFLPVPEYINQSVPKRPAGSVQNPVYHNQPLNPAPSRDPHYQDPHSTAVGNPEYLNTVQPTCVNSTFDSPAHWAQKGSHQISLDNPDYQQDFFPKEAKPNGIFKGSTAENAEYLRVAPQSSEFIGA

SMILES	IC50 (EGFR L858R/C797S; [1])	IC50 (EGFR Del19/T790M/C797S; [2])	IC50 (EGFR Del19/C797S; [3])	IC50 (EGFR L858R/T790M/C797S; [4])	IC50 (EGFR wildtype (WT); IC50 WT (nM), 100 μM ATP)	IC50 (EGFR L858R/C797S; [5])	IC50 (EGFR Del19/T790M/C797S; [6])	IC50 (EGFR Del19/C797S; [7])	IC50 (EGFR L858R/T790M/C797S; [8])	IC50 (EGFR wildtype (WT); [9])
CN1CCC2(CC1)CCN(c1cc(Nc3ccnc(-c4cnn(S(=O)(=O)C5CC5)c4)n3)ncc1C#Cc1cnn(C3CC3)c1)CC2 [Example 319, N-(5-((1-Cyclopropyl-1H-pyrazol-4-yl)ethynyl)-4-(9-methyl-3,9-diazaspiro[5.5]undecan-3-yl)pyridin-2-yl)-2-(1-(cyclopropylsulfonyl)-1H-pyrazol-4-yl)pyrimidin-4-amine]	17.1 nM	0.3 nM	3.2 nM	0.3 nM	4540 nM	–	–	–	–	–
CN1CCC2(CC1)CCN(c1cc(Nc3ccnc(-c4cnn(S(=O)(=O)C5CC5)c4)n3)ncc1C#Cc1cnn(CC3CC3)c1)CC2 [Example 320, N-(5-((1-(Cyclopropylmethyl)-1H-pyrazol-4-yl)ethynyl)-4-(9-methyl-3,9-diazaspiro[5.5]undecan-3-yl)pyridin-2-yl)-2-(1-(cyclopropylsulfonyl)-1H-pyrazol-4-yl)pyrimidin-4-amine]	44 nM	1 nM	10.5 nM	0.8 nM	5670 nM	–	–	–	–	–
CN1CCC2(CC1)CCN(c1cc(Nc3ccnc(-c4cnn(S(=O)(=O)C5CC5)c4)n3)ncc1C#Cc1cnn(C(F)F)c1)CC2 [Example 321, 2-(1-(Cyclopropylsulfonyl)-1H-pyrazol-4-yl)-N-(5-((1-(difluoromethyl)-1H-pyrazol-4-yl)ethynyl)-4-(9-methyl-3,9-diazaspiro[5.5]undecan-3-yl)pyridin-2-yl)pyrimidin-4-amine]	45.2 nM	0.7 nM	8 nM	1.2 nM	5850 nM	–	–	–	–	–
CN1CCC2(CC1)CCN(c1cc(Nc3ccnc(-c4cnn(S(=O)(=O)C5CC5)c4)n3)ncc1C#Cc1cnn(CC(F)F)c1)CC2 [Example 322, 2-(1-(Cyclopropylsulfonyl)-1H-pyrazol-4-yl)-N-(5-((1-(2,2-difluoroethyl)-1H-pyrazol-4-yl)ethynyl)-4-(9-methyl-3,9-diazaspiro[5.5]undecan-3-yl)pyridin-2-yl)pyrimidin-4-amine]	18 nM	0.5 nM	6 nM	0.4 nM	4540 nM	–	–	–	–	–
C[C@]1(O)CC[C@@H](Nc2cc(Nc3ccnc(-c4cnn(S(=O)(=O)C5CC5)c4)n3)ncc2C#Cc2cnn(CC(F)F)c2)CC1 [Example 323, (1s,4s)-4-((2-((2-(1-(Cyclopropylsulfonyl)-1H-pyrazol-4-yl)pyrimidin-4-yl)amino)-5-((1-(2,2-difluoroethyl)-1H-pyrazol-4-yl)ethynyl)pyridin-4-yl)amino)-1-methylcyclohexan-1-ol]	184 nM	0.6 nM	7.4 nM	0.8 nM	> 10000 nM	14.3 nM	0.3 nM	4.5 nM	0.2 nM	146 nM
O=S(=O)(C1CC1)n1cc(-c2nccc(Nc3cc(N[C@H]4CC[C@@H](CO)CC4)c(C#Cc4cnn(CC(F)F)c4)cn3)n2)cn1 [Example 324, ((1s,4s)-4-((2-((2-(1-(Cyclopropylsulfonyl)-1H-pyrazol-4-yl)pyrimidin-4-yl)amino)-5-((1-(2,2-difluoroethyl)-1H-pyrazol-4-yl)ethynyl)pyridin-4-yl)amino)cyclohexyl)methanol]	20.9 nM	0.3 nM	2 nM	0.5 nM	> 10000 nM	3.7 nM	0.3 nM	1.3 nM	0.2 nM	16.5 nM
CC(C)(O)[C@H]1CC[C@@H](Nc2cc(Nc3ccnc(-c4cnn(S(=O)(=O)C5CC5)c4)n3)ncc2C#Cc2cnn(CC(F)F)c2)CC1 [Example 325, 2-((1s,4s)-4-((2-((2-(1-(Cyclopropylsulfonyl)-1H-pyrazol-4-yl)pyrimidin-4-yl)amino)-5-((1-(2,2-difluoroethyl)-1H-pyrazol-4-yl)ethynyl)pyridin-4-yl)amino)cyclohexyl)propan-2-ol]	89.8 nM	1.1 nM	6.9 nM	2.1 nM	> 10000 nM	16.3 nM	0.9 nM	6.2 nM	0.8 nM	115 nM
CC1(O)CCC(Nc2cc(Nc3ccnc(-c4cnn(S(=O)(=O)C5CC5)c4)n3)ncc2C#Cc2cnn(C3CC3(F)F)c2)CC1 (stereo not shown) [Example 326, (1s,4s)-4-((2-((2-(1-(Cyclopropylsulfonyl)-1H-pyrazol-4-yl)pyrimidin-4-yl)amino)-5-((1-(2,2-difluorocyclopropyl)-1H-pyrazol-4-yl)ethynyl)pyridin-4-yl)amino)-1-methylcyclohexan-1-ol]	145 nM	1.9 nM	19.2 nM	2.1 nM	> 10000 nM	5.3 nM	1.9 nM	10.3 nM	0.6 nM	17.6 nM
O=S(=O)(C1CC1)n1cc(-c2nccc(Nc3cc(NC4CCC(CO)CC4)c(C#Cc4cnn(C5CC5(F)F)c4)cn3)n2)cn1 (stereo not shown) [Example 327, ((1s,4s)-4-((2-((2-(1-(Cyclopropylsulfonyl)-1H-pyrazol-4-yl)pyrimidin-4-yl)amino)-5-((1-(2,2-difluorocyclopropyl)-1H-pyrazol-4-yl)ethynyl)pyridin-4-yl)amino)cyclohexyl)methanol]	39.3 nM	2.5 nM	4.8 nM	1.5 nM	> 10000 nM	2.1 nM	2.2 nM	1.6 nM	0.8 nM	11.9 nM
CC(O)C1CCN(c2cc(Nc3ccnc(-c4cnn(S(=O)(=O)C5CC5)c4)n3)ncc2C#Cc2cnn(C(F)(F)F)c2)CC1 (stereo not shown) [Example 328, 1-(1-(2-((2-(1-(Cyclopropylsulfonyl)-1H-pyrazol-4-yl)pyrimidin-4-yl)amino)-5-((1-(trifluoromethyl)-1H-pyrazol-4-yl)ethynyl)pyridin-4-yl)piperidin-4-yl)ethan-1-ol]	47.4 nM	3.1 nM	648 nM	22.7 nM	> 10000 nM	25.8 nM	5.3 nM	36.6 nM	1 nM	162 nM
CC(C)(O)C1CCN(c2cc(Nc3ccnc(-c4cnn(S(=O)(=O)C5CC5)c4)n3)ncc2C#Cc2cnn(C(F)(F)F)c2)CC1 [Example 329, 2-(1-(2-((2-(1-(Cyclopropylsulfonyl)-1H-pyrazol-4-yl)pyrimidin-4-yl)amino)-5-((1-(trifluoromethyl)-1H-pyrazol-4-yl)ethynyl)pyridin-4-yl)piperidin-4-yl)propan-2-ol]	125 nM	5.9 nM	1080 nM	3 nM	> 10000 nM	47.6 nM	21.2 nM	81.8 nM	1.7 nM	700 nM
O=S(=O)(C1CC1)n1cc(-c2nccc(Nc3cc(N4CCC(C5(O)CC5)CC4)c(C#Cc4cnn(C(F)(F)F)c4)cn3)n2)cn1 [Example 330, 1-(1-(2-((2-(1-(Cyclopropylsulfonyl)-1H-pyrazol-4-yl)pyrimidin-4-yl)amino)-5-((1-(trifluoromethyl)-1H-pyrazol-4-yl)ethynyl)pyridin-4-yl)piperidin-4-yl)cyclopropan-1-ol]	45.5 nM	5.2 nM	771 nM	6.2 nM	> 10000 nM	17.6 nM	1.9 nM	55.5 nM	2.2 nM	272 nM
